The values that follow come from US20220267260A1, “COMPOUNDS CONTAINING A SULFONIC GROUP AS KAT INHIBITORS” (Epizyme, Inc., priority 2016, published 2022).

One experiment addresses T1, KAT5 (Homo sapiens, UniProt Q92993).
T1 construct: His-TEV tag (N, cleaved yes); made in house
Put plainly: KAT5 enzyme inhibition assay (SAMDI mass spectrometry). Type of experiment: biochemical. To be noted: His-TEV-FL KAT5-Flag enzyme construct.

In the next experiment the target is T2, KAT6A (Homo sapiens, UniProt Q92794).
T2 construct: His-TEV tag (N, cleaved yes); made in house
T2 sequence (Q92794 with tags, fused parts or gaps): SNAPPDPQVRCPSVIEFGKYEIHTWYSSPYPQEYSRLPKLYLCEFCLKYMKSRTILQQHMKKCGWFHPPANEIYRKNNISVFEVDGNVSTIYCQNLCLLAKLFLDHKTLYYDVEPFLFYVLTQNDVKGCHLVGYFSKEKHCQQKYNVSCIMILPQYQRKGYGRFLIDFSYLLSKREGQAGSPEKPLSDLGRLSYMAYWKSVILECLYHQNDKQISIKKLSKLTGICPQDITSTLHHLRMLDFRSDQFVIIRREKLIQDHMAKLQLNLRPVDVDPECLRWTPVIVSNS
In words: KAT6A enzyme inhibition assay (SAMDI mass spectrometry). To be noted: His-TEV-KAT6A 501-784 enzyme construct. Type of experiment: biochemical.

T1 sequence (Q92993 with tags, fused parts or gaps): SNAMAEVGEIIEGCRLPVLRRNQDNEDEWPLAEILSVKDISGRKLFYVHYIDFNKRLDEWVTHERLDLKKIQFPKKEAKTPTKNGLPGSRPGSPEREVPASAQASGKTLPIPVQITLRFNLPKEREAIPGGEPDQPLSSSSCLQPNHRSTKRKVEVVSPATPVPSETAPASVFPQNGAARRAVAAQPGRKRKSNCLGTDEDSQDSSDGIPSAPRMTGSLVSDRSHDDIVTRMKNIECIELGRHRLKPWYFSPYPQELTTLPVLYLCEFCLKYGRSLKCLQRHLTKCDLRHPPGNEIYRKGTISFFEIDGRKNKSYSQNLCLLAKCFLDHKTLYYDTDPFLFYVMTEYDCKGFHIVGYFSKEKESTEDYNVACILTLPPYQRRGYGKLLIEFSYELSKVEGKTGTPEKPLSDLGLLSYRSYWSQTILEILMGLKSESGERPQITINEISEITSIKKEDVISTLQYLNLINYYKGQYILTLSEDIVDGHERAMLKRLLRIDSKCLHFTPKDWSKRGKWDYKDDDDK

Take `Cc1cc(-c2ccccc2F)cc(C(=O)NNS(=O)(=O)CC2CCCCC2)c1F` [Compound I-269]: the IC50 is ≤ 10 µM on KAT5 and 10 to 50 µM on KAT6A.
`Cc1nn(CC(=O)NC2CCC2)c(C(=O)NNS(=O)(=O)C2CCCCC2)c1F` [Compound I-501]: the IC50 against KAT5 and against KAT6A was > 100 µM each time.
`COc1ccc(CN2CCC(S(=O)(=O)NNC(=O)c3cc(-c4ccccc4)cc(C)c3F)C2)cc1` (stereo not drawn) [Compound I-27]: the IC50 at KAT5 and on KAT6A was 10 to 50 µM each time.
Regarding `Cc1cc(-c2ccccc2)cc(C(=O)NNS(=O)(=O)C2CCCNC2)c1F` (stereo not drawn) [Compound I-97], the IC50 against KAT5 is > 100 µM; at KAT6A, 50 to 100 µM.
For the molecule `Cc1cc(-c2ccccc2)cc(C(=O)NNS(=O)(=O)C(C)C2CCNCC2)c1F` (stereo not drawn) [Compound I-382], the IC50 at KAT5 and at KAT6A was 50 to 100 µM throughout.
Turning to `Cc1cc(Br)cc(C(=O)NNS(=O)(=O)C2CCCCC2)c1F` [Compound I-293], the 50% inhibitory concentration (IC50) against KAT5 was ≤ 10 µM; against KAT6A, 50 to 100 µM.
With `Cc1cc(-c2cccc(F)c2)cc(C(=O)NNS(=O)(=O)CC2CCN(C(=O)OC(C)(C)C)CC2)c1F` [Compound I-359], the half-inhibitory concentration (IC50) on KAT5 and at KAT6A was ≤ 10 µM throughout.
Take `Cn1cnc2c(C(=O)NNS(=O)(=O)C3CCCCC3)cc(-c3ccccc3)cc21` [Compound I-283]: the IC50 against KAT5 and against KAT6A was > 100 µM throughout.
Take `COCCN1CC(CS(=O)(=O)NNC(=O)c2cc(-c3ccccc3)cc(C)c2F)C1` [Compound I-208]: the half-inhibitory concentration (IC50) against KAT5 and against KAT6A was 10 to 50 µM each time.
Take `Cc1cc(-c2ccccc2)cc(C(=O)NCc2cc[nH]n2)c1F` [Compound I-173]: the half-maximal inhibitory concentration (IC50) at KAT5 and at KAT6A was > 100 µM each time.
Regarding `O=C(NNS(=O)(=O)c1ccccc1)c1ccccc1` [Compound I-159], the results for the half-inhibitory concentration (IC50) against KAT5 and at KAT6A were > 100 µM and 50 to 100 µM, respectively.
In the case of `Cc1cc(-c2ccccc2)cc(C(=O)NNS(=O)(=O)CC2CCCN(CCO)C2)c1F` (stereo not drawn) [Compound I-339], the concentration for half-maximal inhibition (IC50) against KAT5 and at KAT6A was 10 to 50 µM each time.
As to `O=C(NNS(=O)(=O)c1ccccc1)c1c(F)cccc1-c1ccccc1` [Compound I-354], the IC50 on KAT5 and at KAT6A was > 100 µM throughout.
With `Cc1cc(-c2cccc(OCCN(C)C)c2)cc(C(=O)NNS(=O)(=O)C2CCCCC2)c1F` [Compound I-403], the IC50 against KAT5 and against KAT6A was > 100 µM throughout.
For `Cc1cc(-c2ccccc2)cc(C(=O)NNS(=O)(=O)C2CN(Cc3ccccc3Cl)C2)c1F` [Compound I-37], the half-inhibitory concentration (IC50) against KAT5 and against KAT6A was 10 to 50 µM in each case.
As for `Cc1cc(-c2ccccc2)cc(C(=O)NNS(=O)(=O)Cc2ccccc2)c1F` [Compound I-9], the IC50 against KAT5 and on KAT6A was ≤ 10 µM in each case.
On to `O=C(NNS(=O)(=O)C1CCOCC1)c1cc(Cn2ccnc2)cc(Cl)c1F` [Compound I-440], for which the IC50 against KAT5 and against KAT6A was > 100 µM each time.
Consider `Cc1cccc(-c2cccc(C(=O)NNS(=O)(=O)c3ccccc3)c2F)c1` [Compound I-229], for which the concentration for half-maximal inhibition (IC50) against KAT5 and against KAT6A was 10 to 50 µM in each case.
Take `CNC(=O)Cn1nc(C(=O)NNS(=O)(=O)C2CCCCC2)c(F)c1C` [Compound I-489]: the IC50 at KAT5 and at KAT6A was > 100 µM in each case.
In the case of `Cc1cccc(C(=O)NNS(=O)(=O)C2CNC2)c1F` [Compound I-203], the IC50 on KAT5 and against KAT6A was > 100 µM throughout.
With `COCCNC(=O)c1cccc(-c2cc(C)c(F)c(C(=O)NNS(=O)(=O)c3ccccc3)c2)c1` [Compound I-494], the IC50 at KAT5 is 10 to 50 µM; against KAT6A it was ≤ 10 µM.
For `COCc1cc(Cl)c(F)c(C(=O)NNS(=O)(=O)CC2CCCCC2)c1` [Compound I-437], the IC50 against KAT5 and on KAT6A was ≤ 10 µM throughout.
Regarding `Cc1cc(-c2ccccc2)cc(C(=O)NNS(=O)(=O)C(C)C)c1F` [Compound I-3], the values for the IC50 at KAT5 and against KAT6A were 10 to 50 µM and 50 to 100 µM, respectively.
`CCc1cc(-c2ccccc2)cc(C(=O)NNS(=O)(=O)c2ccccc2)c1F` [Compound I-216]: the 50% inhibitory concentration (IC50) against KAT5 and on KAT6A was ≤ 10 µM throughout.
`Cc1cc(-c2cccc(C(=O)O)c2)cc(C(=O)NNS(=O)(=O)C2CCCCC2)c1F` [Compound I-444]: the IC50 against KAT5 and on KAT6A was ≤ 10 µM in each case.
Consider `Cc1cc(-c2ccccc2)cc(C(=O)NNS(=O)(=O)C2CCN(C)CC2)c1F` [Compound I-90], for which the half-inhibitory concentration (IC50) against KAT5 and against KAT6A was 10 to 50 µM in each case.
For `CC(=O)N1CCOC(CS(=O)(=O)NNC(=O)c2cc(-c3ccccc3)cc(C)c2F)C1` (stereo not drawn) [Compound I-427], the IC50 at KAT5 and at KAT6A was ≤ 10 µM throughout.
On to `COc1cc(-c2ccccc2)cc(C(=O)NNS(=O)(=O)C2CCCCC2)c1F` [Compound I-315], for which the IC50 at KAT5 and on KAT6A was 10 to 50 µM in each case.
For `O=C(NNS(=O)(=O)C1CCCCC1)c1cc(CO)cc(Cl)c1F` [Compound I-456], the IC50 at KAT5 and against KAT6A was > 100 µM in each case.
`CNC(=O)Cn1nc(C(=O)NNS(=O)(=O)C2CCCCC2)cc1C` [Compound I-481]: the half-inhibitory concentration (IC50) at KAT5 and against KAT6A was > 100 µM each time.
For `O=C(NNS(=O)(=O)c1ccccc1)c1c(F)ccc(-c2ccccc2)c1F` [Compound I-233], the half-inhibitory concentration (IC50) was 10 to 50 µM at KAT5 and ≤ 10 µM against KAT6A.
In the same order, the values of `Cc1cc(-c2cccc(C(=O)N(C)C)c2)cc(C(=O)NNS(=O)(=O)C2CCCCC2)c1F` [Compound I-378] are 50 to 100 µM and > 100 µM.
For `CNCCC(=O)N1CCC(CS(=O)(=O)NNC(=O)c2cc(-c3cccc(F)c3)cc(C)c2F)CC1` [Compound I-389] the same measures were 10 to 50 µM and 10 to 50 µM.
Consider `CC(=O)N1CCC(CS(=O)(=O)NNC(=O)c2cc(-c3ccccc3)cc(C)c2F)CC1` [Compound I-341], for which the half-maximal inhibitory concentration (IC50) against KAT5 and against KAT6A was ≤ 10 µM in each case.
Take `Cc1cc(-c2ccccc2)cc(C(=O)NNS(=O)(=O)C2CCNCC2)c1F` [Compound I-89]: the IC50 on KAT5 and at KAT6A was > 100 µM throughout.
Regarding `Cc1cc(-c2cccnc2)cc(C(=O)NNS(=O)(=O)c2ccccc2)c1F` [Compound I-195], the IC50 against KAT5 was 10 to 50 µM; on KAT6A it was ≤ 10 µM.
Consider `Cc1nc(-c2cccc(F)c2)cc(C(=O)NNS(=O)(=O)CC2CCCN(C(=O)C3CCC3)C2)c1F` (stereo not drawn) [Compound I-291], for which the IC50 on KAT5 and against KAT6A was ≤ 10 µM throughout.
`O=C(NNS(=O)(=O)c1cc(-c2ccccc2)cc(Cl)c1F)C1CCCCC1` [Compound I-524]: the IC50 against KAT5 is 50 to 100 µM; against KAT6A, 10 to 50 µM.
Consider `Cc1cc(-c2ccccc2)cc(C(=O)NCCS(=O)(=O)Nc2ccccc2)c1F` [Compound I-75], for which the IC50 against KAT5 lay within 50 to 100 µM; against KAT6A, 10 to 50 µM.
On to `COc1cccc(CS(=O)(=O)NNC(=O)c2cc(-c3ccccc3)cc(C)c2F)c1` [Compound I-80], for which the concentration for half-maximal inhibition (IC50) on KAT5 and at KAT6A was ≤ 10 µM throughout.
For the molecule `CCN1CCC(S(=O)(=O)NNC(=O)c2cc(-c3ccccc3)cc(C)c2F)CC1` [Compound I-91], the half-maximal inhibitory concentration (IC50) against KAT5 was 10 to 50 µM; on KAT6A, 50 to 100 µM.
With `Cc1cc(-c2cc(F)cc(F)c2)cc(C(=O)NNS(=O)(=O)c2ccccc2)c1F` [Compound I-353], the half-inhibitory concentration (IC50) at KAT5 and against KAT6A was ≤ 10 µM each time.

A word on the IC50: it is the concentration that inhibits the measured activity by half. A higher IC50 goes with a need for much substance.
